Values joined by “and” are separate entries in the source; they are usually repeats but may differ in a detail not shown here. Identical values can stand only once. “Also recorded” adds a separate entry of the source. Like-named read-outs stand apart in the source and are kept apart here.
Columns and labels:
[1] = clinical; details: human, in vivo
Protocol: Pharmacokinetic parameters were calculated using noncompartmental methods[20] using Phoenix® WinNonlin® Version 8.1 (WinNonlin version 8.1.03530, Pheonix 64; Pharsight Corporation, Mountain View, CA). […] Oral steady-state clearance (ClSS/F) was calculated using the equation, ClSS = Dose/AUCτ.

[2] = system: newly diagnosed diffuse intrinsic pontine glioma (DIPG); assay: Clinical activity: objective response by MRI and overall survival; type: in vivo, human
Protocol: Disease assessments were performed at baseline prior to start of CRT, within 3–4 weeks after completion of CRT, and then every 3 months. Response assessment was determined by changes in size using the maximal 2-dimensional cross-sectional tumor measurements, T × W (product of the longest diameter of the tumor [width (W)] and its longest perpendicular diameter [transverse (T)], using either T1 or T2 weighted images, similar to historical controls.[21],[22] We defined stable disease (SD) as failing to meet criteria for either partial response (PR), complete response (CR) or progressive disease (PD). PD was defined as any appearance of new lesion(s) or an increase of 25% or more in the sum of the product of the perpendicular diameters of the target lesions. PR was defined as a decrease of 50% or more in the sum of the products of the two perpendicular diameters of the target lesion. Two objective determinations of disease status, by MRI, obtained on two consecutive determinations, separated by at least a 4-week time period, were required to determine the patient’s overall best response. Imaging was reviewed centrally for 41 response-evaluable patients.
Progressive disease was based on central imaging review.

[3] = system: γH2AX in peripheral blood mononuclear cells (PBMCs); assay: γH2AX in peripheral blood cells by flow cytometry (pharmacodynamics); type: in vivo, human; details: for γ-H2AX positive cells in peripheral blood cells, Post-Day1 dosing / γ-H2AX positive cells in peripheral blood cells, Post-Day5 dosing / γ-H2AX positive cells in peripheral blood cells, Post-Day8 dosing: individual patients
Protocol: The expression of γH2AX in PBMCs was measured pre and posttreatment using flow cytometry. Effort was made to obtain two baseline (pretreatment) samples on two different days, with the first occurring within 7 days prior to CRT. Serial samples were then collected on days 1 and 5 of treatment, 6-8 hours after each dose, and day 8 prior to the day's dose. Blood samples of 1 mL were drawn into heparinized containing tubes and transferred to a Smart Tube (Thermo Fisher) followed by a 30 min incubation period in a 37°C water bath for activation per manufacture's guidelines. Samples were stored at -80°C until shipment. The frozen Smart Tubes were thawed in a 10-12°C water bath for 20 min before the red blood cells were lysed and intact cells were fixed in 90% methanol and stored at -20°C overnight. Briefly, the methanol fixed cells were washed and blocked in staining buffer (1X PBS containing 0.5 mg/ml BSA) containing TruStain FcX^TM (BioLegend) for 10 min at room temperature. Next, cells were incubated with FITC-conjugated anti-γH2AX […] antibody (BioLegend) for 1 h, washed and DNA stained with propidium iodide (2 μg/ml) before data colection by flow cytometry on CytoflexS. Percent positive γH2AX blood cells was determined by FlowJo software and described as fold-change over baseline for each patient.[16]

[4] = cited from earlier work
[5] = parameters: method as in ref 25 = [25]; 25. Alexander B , Supko J , Agar N , et al. ACTR-14. Phase 1 study of AZD1775 with radiation therapy (RT) and Temozolomide (TMZ) in patients with newly diagnosed gliobasltoma (GBM) and evaluation of i; details: adavosertib 200 mg/day (approximately 115 mg/m^2/day) in combination with temozolomide; cited from earlier work
[6] = system: pediatric glioma cell lines including a DIPG derived cell line; parameters: method as in PMID 24305702; details: effect enhanced by radiation; cited from earlier work
[7] = system: pediatric high-grade glioma including DIPG; parameters: method as in PMID 24305702, PMID 23270927; details: in combination with radiation therapy; cited from earlier work
[8] = system: adult glioblastoma multiforme (GBM); parameters: method as in ref 3 (Mir et al.); details: combining radiation therapy with adavosertib; ref 3 (Mir et al.); cited from earlier work
[9] = system: γH2AX in tumor tissue; parameters: method as in our preclinical studies; details: treated mice compared to control animals; ref our preclinical studies; cited from earlier work
[10] = cited from earlier work; remark: listed apart in the source
[11] = 41 patients evaluable for objective response, with CRT
[12] = 50 mg/m², alternating with weeks of QOD dosing

Compound: C=CCn1c(=O)c2cnc(Nc3ccc(N4CCN(C)CC4)cc3)nc2n1-c1cccc(C(C)(C)O)n1 [adavosertib]
- AUC(0-t) ([1]; 160 mg/m2, AUC0-8h): 8.47 ± 2.36 µM·h
- Cmax ([1]; 160 mg/m2, Cmax): 1690 ± 670 nM
- Tmax ([1]; 160 mg/m2, Tmax): 2.2 ± 1.1 h
- AUC ([1]; 200 mg/m2): 16.4 ± 7.76 µM·h
- AUC0-8h ([1]; 200 mg/m2): 6.904 ± 2.758 µM·h
- AUC(0-inf) ([1]; 200 mg/m2): 12.2 ± 1.7 µM·h
- CLss (steady-state clearance) ([1]; 200 mg/m2): 33.4 ± 25.8 L/hr/m^2
- Cmax ([1]; 200 mg/m2): 1650 ± 1050 nM
- Tmax ([1]; 200 mg/m2): 2.5 ± 2.1 h
- half-life ([1]; 200 mg/m2): 5.6 ± 1.3 h
- AUC(0-t) ([1]; 200 mg/m2, AUC0-8h): 9.63 ± 4.22 µM·h
- Cmax ([1]; 200 mg/m2, Cmax): 2020 ± 780 nM
- Tmax ([1]; 200 mg/m2, Tmax): 2.6 ± 1.4 h
- Mean oral clearance ([1]; po): 46.9 L/h
- Tmax ([1]; po, Tmax): 2 h
- Progressive disease (PD) as best overall response, number of patients [2, 11]: 8
- Progressive disease (PD) as best overall response, share of patients [2, 11]: 19.5%
- Stable disease (SD) as best overall response, number of patients [2, 11]: 33
- Stable disease (SD) as best overall response, share of patients [2, 11]: 80.5%
- Best response by dose level ([2]; Fisher exact P = .82): no significant difference in best response by dose level
- Median overall survival (OS) ([2]; Kaplan Meier, adavosertib with CRT, all dose levels): 11.8 months
- OS compared to historical control ([2]; historical cohort ACNS0126 and ACNS0222, log-rank test): did not differ from historical control; also recorded: no significant difference in median OS; also recorded: not superior
- γ-H2AX positive cells in peripheral blood cells, Post-Day1 dosing ([3]; 50 mg/m², During Weeks 1-6): 1.42 and 1.29
- γ-H2AX positive cells in peripheral blood cells, Post-Day5 dosing ([3]; 50 mg/m², During Weeks 1-6): 1.42 and 0.32
- γ-H2AX positive cells in peripheral blood cells, Post-Day8 dosing ([3]; 50 mg/m², During Weeks 1-6): 0.68 and 0.11
- γ-H2AX positive cells in peripheral blood cells, Post-Day1 dosing ([3]; 50 mg/m², alternating weeks): 2.74
- γ-H2AX positive cells in peripheral blood cells, Post-Day5 dosing ([3]; 50 mg/m², alternating weeks): 2.03
- γ-H2AX positive cells in peripheral blood cells, Post-Day8 dosing ([3]; 50 mg/m², alternating weeks): 7.24
- γ-H2AX positive cells in peripheral blood cells, Post-Day1 dosing [3, 12]: 3.17 and 1.03 and 1.31 and 0.12
- γ-H2AX positive cells in peripheral blood cells, Post-Day5 dosing [3, 12]: 7.63 and 0.70 and 4.90 and 0.15
- γ-H2AX positive cells in peripheral blood cells, Post-Day8 dosing [3, 12]: 1.08 and 2.90 and 2.30 and 0.19
- γ-H2AX positive cells in peripheral blood cells, Post-Day1 dosing ([3]; 95 mg/m², During Weeks 1-6): 2.48 and 3.42 and 1.89
- γ-H2AX positive cells in peripheral blood cells, Post-Day5 dosing ([3]; 95 mg/m², During Weeks 1-6): 6.31 and 0.55 and 1.63
- γ-H2AX positive cells in peripheral blood cells, Post-Day8 dosing ([3]; 95 mg/m², During Weeks 1-6): 4.92 and 0.04 and 2.75
- γ-H2AX positive cells in peripheral blood cells, Post-Day1 dosing ([3]; 130 mg/m², During Weeks 1-6): 0.26 and 0.38 and 0.61 and 0.16 and 10.60 and 0.31
- γ-H2AX positive cells in peripheral blood cells, Post-Day5 dosing ([3]; 130 mg/m², During Weeks 1-6): 0.41 and 0.33 and 2.47 and 0.43 and 3.75 and 0.06
- γ-H2AX positive cells in peripheral blood cells, Post-Day8 dosing ([3]; 130 mg/m², During Weeks 1-6): 0.48 and 1.08 and 16.50 and 0.50 and 1.49 and 0.00
- γ-H2AX positive cells in peripheral blood cells, Post-Day1 dosing ([3]; 160 mg/m², During Weeks 1-6): 0.96 and 7.75 and 0.95 and 2.25 and 6.62
- γ-H2AX positive cells in peripheral blood cells, Post-Day5 dosing ([3]; 160 mg/m², During Weeks 1-6): 5.27 and 0.13 and 1.86 and 0.31 and 5.28
- γ-H2AX positive cells in peripheral blood cells, Post-Day8 dosing ([3]; 160 mg/m², During Weeks 1-6): 5.59 and 5.55 and 0.95 and 3.37 and 3.25
- γ-H2AX positive cells in peripheral blood cells, Post-Day1 dosing ([3]; 200 mg/m², During Weeks 1-6): 0.88 and 2.45 and 17.90 and 0.00
- γ-H2AX positive cells in peripheral blood cells, Post-Day5 dosing ([3]; 200 mg/m², During Weeks 1-6): 3.75 and 3.61 and 16.90 and 0.01 and 6.11
- γ-H2AX positive cells in peripheral blood cells, Post-Day8 dosing ([3]; 200 mg/m², During Weeks 1-6): 0.40 and 2.17 and 14.70 and 0.01 and 5.81
- Change of γH2AX in PBMCs compared to baseline ([3]; any dose level, with CRT): no significant changes compared to baseline
- Elimination half-life (t1/2) ([4]; adult patients): 9 to 11 h
- Tmax ([4]; adult patients): 4 h
- Mean oral clearance ([4]; fasting adults, ref a recent report of a food-effect study): 40.85 L/h
- Toxicity in adults with newly diagnosed glioblastoma [5]: significant toxicity
- Anti-proliferative effect in clonogenic survival assays [6]: dose-dependent anti-proliferative effects
- Survival in murine models [7]: prolongs survival
- Survival in orthotopic GBM models [8]: significantly improved survival
- γH2AX expression in tumor tissue [9]: increased expression of γH2AX
- BSA-adjusted plasma clearance ([10]; earlier pediatric COG study): 32.5 L/hr/m^2
- MTD of adavosertib ([10]; in combination with irinotecan 90 mg/m^2/dose, orally daily for 5 days on a 21 day cycle): 85 mg/m^2/dose

Reference: PMC9209747 (Neuro-oncology Advances, 2022)
